Like-named read-outs stand apart in the source and are kept apart here.
Legend:
[1] = system: melanoma A375 tumor cell line; assay: MTT reduction assay, A375 melanoma cells; assay type: cell-based, human
Protocol: (§1) The cytotoxic activity was measured against the melanoma A375 tumor cell line (ECACC) and the human BJ fibroblast cell line (ATCC) using an MTT reduction assay. The selectivity index (SI) was calculated using the following formula: SI = IC50 (BJ)/ IC50 (A375).
The A375 cell line was purchased from the European Collection of Authenticated Cell Cultures (ECACC, Salisbury, UK) and the BJ human fibroblast cell line from the American Type Culture Collection (ATCC, Manassas, VA, USA). All the cell lines were grown as a monolayer in standard conditions: 37 °C, 100% humidity, under an atmosphere of 5% CO2. […] The BJ cell line was grown in EMEM with EBSS, NEAA and sodium pyruvate with L-Glutamine supplemented, 10% fetal bovine serum and 50 IU/mL penicillin/streptomycin.
(§2) Next, the cells were seeded in 96-well plates at a density of 5000 cells per well and incubated overnight to reach the logarithmic growth phase. […] After 72 h, 10 µL of MTT solution (5 g/L) was added into each well and incubated for an additional four hours. Subsequently, the medium was removed, and 100 µL of dimethyl sulfoxide (DMSO) was added into each well. The absorbance was then measured at 570 nm using a SPECTROstar Nano microplate reader (BMG Biotech Inc., Cary, NC, USA)/Tecan Spark 10M. The mean value from three independent BJ and A375 cell cultures was taken to calculate the cell viability, expressed as a percentage of the control values, i.e., untreated cells assumed as 100%.

[2] = system: human BJ fibroblast cell line; assay: MTT reduction assay, BJ fibroblasts; assay type: cell-based; conditions: 72 h
Protocol: as §1
The A375 cell line was purchased from the European Collection of Authenticated Cell Cultures (ECACC, Salisbury, UK) and the BJ human fibroblast cell line from the American Type Culture Collection (ATCC, Manassas, VA, USA). All the cell lines were grown as a monolayer in standard conditions: 37 °C, 100% humidity, under an atmosphere of 5% CO2. The A375 cells were cultured in Dulbecco’s Modified Eagle Medium supplemented with 15% fetal calf serum and 50 IU/mL penicillin/streptomycin. The BJ cell line was grown in EMEM with EBSS, NEAA and sodium pyruvate with L-Glutamine supplemented, 10% fetal bovine serum and 50 IU/mL penicillin/streptomycin.
as §2

[3] = system: red blood cells (RBCs); assay: Erythrotoxicity (RBC hemolysis, lysis assay); assay type: cell-based, human; conditions: 24 h, 50 µmol/L and 100 µmol/L, 2% RBC suspension
Protocol: Their erythrotoxicity was also assessed. Red blood cells are model cells used in basic studies of the biocompatibility of new compounds and some medical materials. […] The amount of hemoglobin released from damaged cells was measured using a spectrophotometer.
Erythrotoxicity was assessed in a 2% erythrocyte suspension following 1 h and 24 h of incubation with the tested compounds.
(§3) The plasma was used for the hemostasis tests.
The influence of the compounds on the red blood cells (RBCs)’ membrane integrity was assessed using a lysis assay, as described previously. Briefly, the tested compounds (1 to 100 μmol/L) were incubated in a 2% RBC suspension in 0.9% NaCl at 37 °C for 24 h; solvent was used as the control. The samples were then centrifuged at 3000× g for 10 min, and the absorbance of the supernatant was determined at 550 nm (maximum absorbance for hemoglobin). The results are presented as the degree of hemolysis, i.e., the percentage of released hemoglobin. A sample containing Triton X-100 was used as the positive control (100% hemolysis), whereas a sample of saline solution represented spontaneous hemolysis of the RBCs (control).

[4] = system: clot formation and fibrinolysis in human citrate plasma; assay: Clot formation and fibrinolysis test (CL-test); conditions: for CLAUC overall potential for clot formation and fibrinolysis / Fmax maximum clotting / Fvo initial plasma clotting velocity / Lmax maximum lysis / Lvo initial clot fibrinolysis velocity / Sc area under the curve of stable clot formation / Sf area under the fibrinolysis curve / Sr area under the clot formation curve / Tc clot stabilization time / Tf plasma clotting time / Tl fibrinolysis time / Tt thrombin time: mean, n = 3
Protocol: Following this, the impact of the tested complex compounds and their ligands on the overall clot formation and fibrinolysis potential (CLAUC) and individual kinetic parameters was assessed using the CL-test. The analysis was performed using plasma from three different donors.
The blood samples used were residual materials from routine diagnostic studies, destined for disposal as medical waste. […] Platelet-poor plasma (PPP) and red blood cells were obtained using centrifugation at 3000× g for 10 min at room temperature using a Mikro 22R centrifuge (Hettich Zentrifugen, Tuttlingen, Germany). The plasma was used for the hemostasis tests. Before use, the centrifuged erythrocyte mass was washed three times with physiological saline solution to remove the plasma protein residues and other blood cells.
The influence of the compounds on the overall hemostasis potential was determined using the CL-test through continuous measurement of changes in optical transmittance, as described previously [53, 54]. The experiments were conducted using three-fold diluted human citrate plasma, t-PA and thrombin. […] The results are presented as means ± SD (n = 3). The curves were used to determine the kinetic parameters of clot formation, stabilization and fibrinolysis using dedicated software [51]. The following parameters of clot formation were determined: Tt—thrombin time (s), Fmax—maximum clotting (%T), Tf—plasma clotting time (s), Fvo—initial plasma clotting velocity (%T/min), Sr—area under the clot formation curve (%Txmin). The parameters of the clot stabilization phase comprised Tc—clot stabilization time (s) and Sc—area under the curve of stable clot formation (%Txmin). The parameters of fibrinolysis comprised Lmax—maximum lysis (%T), Tl—fibrinolysis time (s), Lvo—initial clot fibrinolysis velocity (%T/min) and Sf—area under the fibrinolysis curve (%Txmin). Additionally, the overall potential for clot formation and fibrinolysis, i.e., CLAUC (%Txmin), was also estimated.

[5] = system: extrinsic coagulation pathway; assay: Prothrombin time (PT) and INR in human citrated plasma
Protocol: The first stage assessed the changes in plasma hemostasis occurring under the influence of the five test compounds. Plasma was incubated with the tested compounds and ligands at six different concentrations ranging from 0.5 to 100 µmol/L. The plasma was obtained from five different volunteers. To evaluate the impact on the extrinsic coagulation pathway, the prothrombin time (PT) was determined in human citrated plasma, expressed in seconds and as the international normalized ratio (INR) (Figure 6 and Figure 7).
as §3
The results are presented as means ± standard deviation (SD).

[6] = system: intrinsic coagulation pathway; conditions: 100 µmol/L (highest concentration), mean within reference range 26.7–40.0 s
Protocol: To evaluate the intrinsic coagulation pathway, the plasma was mixed with the tested compounds at the same concentrations as in the PT analysis, and the activated partial thromboplastin time (APTT) was measured.
as §3
The PT, APTT and TT were measured using a Coag Chrom 3003 coagulometer (Bio-Ksel, Grudziadz, Poland) according to the manufacturer’s instructions, using commercially available reagents (Bio-Ksel, Grudziadz, Poland). The experiment was conducted as three independent experiments (in duplicate); distilled water or methanol was used as the control.

For `O=[N+]([O-])[O-].[Ag+]` [AgNO3, silver(I) nitrate], the “effect on A375 cell viability” value ([1]; 72 h of exposure) was “dose-dependent reduction”, the IC50 ([1]; MTT, 72 h) was 11.1 ± 0.8 µM and the IC50 [2] was > 100 µM. The erythrocyte hemolysis [3] was > 60% and the “effect on CLAUC and kinetic parameters of clot formation and lysis” value ([4]; entire concentration range 0.5–100 µmol/L) was “no significant differences”.

For `Cc1ncc([N+](=O)[O-])n1CCO.Cc1ncc([N+](=O)[O-])n1CCO.Cc1ncc([N+](=O)[O-])n1CCO.Cc1ncc([N+](=O)[O-])n1CCO.O=S(=O)([O-])[O-].[Ag+].[Ag+]` [[(MTZ)2Ag]2SO4, metronidazole silver(I) sulfate], the “prolongation of PT and INR beyond the reference range” value ([5]; up to 100 µmol/L, reference PT 9.7–14.6 s, INR 0.8–1.2) was “do not cause pathological prolongation”, the “effect on APTT” value ([6]; listed as metronidazole complex with Ag2SO4) was “significantly prolonged” and the “effect on APTT” value ([6]; listed as metronidazole with Ag2SO4) was “statistically significant prolongation”. For the same molecule, the “CLAUC overall potential for clot formation and fibrinolysis” value (“CLAUC overall potential” for short) ([4]; 0.5 µmol/L) was 348.3 %*min, the Fmax maximum clotting ([4]; 0.5 µmol/L) was 70.6% and the “Fvo initial plasma clotting velocity” value ([4]; 0.5 µmol/L) was 160.0 %/min. The Lmax maximum lysis ([4]; 0.5 µmol/L) was 69.8%, the “Lvo initial clot fibrinolysis velocity” value ([4]; 0.5 µmol/L) was 20.3 %/min and the “Sc area under the curve of stable clot formation” value (“Sc area under the curve” for short) ([4]; 0.5 µmol/L) was 165.1 %*min. For the same molecule, the “Sf area under the fibrinolysis curve” value ([4]; 0.5 µmol/L) was 135.9 %*min, the “Sr area under the clot formation curve” value ([4]; 0.5 µmol/L) was 47.3 %*min and the “Tc clot stabilization time” value ([4]; 0.5 µmol/L) was 144.3 s. For the same molecule, the “Tf plasma clotting time” value ([4]; 0.5 µmol/L) was 59.1 s, the Tl fibrinolysis time ([4]; 0.5 µmol/L) was 196.7 s and the Tt thrombin time ([4]; 0.5 µmol/L) was 20.1 s. The “CLAUC overall potential” value ([4]; 1.0 µmol/L) was 417.7 %*min, the Fmax maximum clotting ([4]; 1.0 µmol/L) was 73.8% and the “Fvo initial plasma clotting velocity” value ([4]; 1.0 µmol/L) was 181.0 %/min. The Lmax maximum lysis ([4]; 1.0 µmol/L) was 73.5%, the “Lvo initial clot fibrinolysis velocity” value ([4]; 1.0 µmol/L) was 19.8 %/min and the “Sc area under the curve” value ([4]; 1.0 µmol/L) was 207.8 %*min. For the same molecule, the “Sf area under the fibrinolysis curve” value ([4]; 1.0 µmol/L) was 157.6 %*min, the “Sr area under the clot formation curve” value ([4]; 1.0 µmol/L) was 52.4 %*min and the “Tc clot stabilization time” value ([4]; 1.0 µmol/L) was 174.3 s. For the same molecule, the “Tf plasma clotting time” value ([4]; 1.0 µmol/L) was 61.2 s, the Tl fibrinolysis time ([4]; 1.0 µmol/L) was 226.3 s and the Tt thrombin time ([4]; 1.0 µmol/L) was 20.5 s. The “CLAUC overall potential” value ([4]; 5.0 µmol/L) was 411.1 %*min, the Fmax maximum clotting ([4]; 5.0 µmol/L) was 78.6% and the “Fvo initial plasma clotting velocity” value ([4]; 5.0 µmol/L) was 212.3 %/min. For the same molecule, the Lmax maximum lysis ([4]; 5.0 µmol/L) was 77.9%, the “Lvo initial clot fibrinolysis velocity” value ([4]; 5.0 µmol/L) was 24.8 %/min and the “Sc area under the curve” value ([4]; 5.0 µmol/L) was 210.7 %*min. For the same molecule, the “Sf area under the fibrinolysis curve” value ([4]; 5.0 µmol/L) was 155.5 %*min, the “Sr area under the clot formation curve” value ([4]; 5.0 µmol/L) was 44.8 %*min and the “Tc clot stabilization time” value ([4]; 5.0 µmol/L) was 166.7 s. The “Tf plasma clotting time” value ([4]; 5.0 µmol/L) was 50.2 s, the Tl fibrinolysis time ([4]; 5.0 µmol/L) was 204.7 s and the Tt thrombin time ([4]; 5.0 µmol/L) was 19.7 s. For the same molecule, the “CLAUC overall potential” value ([4]; 10.0 µmol/L) was 406.3 %*min, the Fmax maximum clotting ([4]; 10.0 µmol/L) was 75.7% and the “Fvo initial plasma clotting velocity” value ([4]; 10.0 µmol/L) was 178.3 %/min. For the same molecule, the Lmax maximum lysis ([4]; 10.0 µmol/L) was 75.0%, the “Lvo initial clot fibrinolysis velocity” value ([4]; 10.0 µmol/L) was 21.5 %/min and the “Sc area under the curve” value ([4]; 10.0 µmol/L) was 203.7 %*min. For the same molecule, the “Sf area under the fibrinolysis curve” value ([4]; 10.0 µmol/L) was 156.2 %*min, the “Sr area under the clot formation curve” value ([4]; 10.0 µmol/L) was 46.4 %*min and the “Tc clot stabilization time” value ([4]; 10.0 µmol/L) was 166.7 s. The “Tf plasma clotting time” value ([4]; 10.0 µmol/L) was 55.0 s, the Tl fibrinolysis time ([4]; 10.0 µmol/L) was 208.3 s and the Tt thrombin time ([4]; 10.0 µmol/L) was 20.7 s. For the same molecule, the “CLAUC overall potential” value ([4]; 50.0 µmol/L) was 421.1 %*min, the Fmax maximum clotting ([4]; 50.0 µmol/L) was 76.9% and the “Fvo initial plasma clotting velocity” value ([4]; 50.0 µmol/L) was 159.6 %/min. For the same molecule, the Lmax maximum lysis ([4]; 50.0 µmol/L) was 74.3%, the “Lvo initial clot fibrinolysis velocity” value ([4]; 50.0 µmol/L) was 21.7 %/min and the “Sc area under the curve” value ([4]; 50.0 µmol/L) was 184.0 %*min. For the same molecule, the “Sf area under the fibrinolysis curve” value ([4]; 50.0 µmol/L) was 175.2 %*min, the “Sr area under the clot formation curve” value ([4]; 50.0 µmol/L) was 47.5 %*min and the “Tc clot stabilization time” value ([4]; 50.0 µmol/L) was 158.7 s. The “Tf plasma clotting time” value ([4]; 50.0 µmol/L) was 58.4 s, the Tl fibrinolysis time ([4]; 50.0 µmol/L) was 200.7 s and the Tt thrombin time ([4]; 50.0 µmol/L) was 20.7 s. The “CLAUC overall potential” value ([4]; 100.0 µmol/L) was 390.3 %*min, the Fmax maximum clotting ([4]; 100.0 µmol/L) was 72.3% and the “Fvo initial plasma clotting velocity” value ([4]; 100.0 µmol/L) was 159.3 %/min. For the same molecule, the Lmax maximum lysis ([4]; 100.0 µmol/L) was 72.0%, the “Lvo initial clot fibrinolysis velocity” value ([4]; 100.0 µmol/L) was 22.1 %/min and the “Sc area under the curve” value ([4]; 100.0 µmol/L) was 194.4 %*min. The “Sf area under the fibrinolysis curve” value ([4]; 100.0 µmol/L) was 145.2 %*min, the “Sr area under the clot formation curve” value ([4]; 100.0 µmol/L) was 50.8 %*min and the “Tc clot stabilization time” value ([4]; 100.0 µmol/L) was 166.3 s. For the same molecule, the “Tf plasma clotting time” value ([4]; 100.0 µmol/L) was 62.6 s, the Tl fibrinolysis time ([4]; 100.0 µmol/L) was 219.7 s and the Tt thrombin time ([4]; 100.0 µmol/L) was 20.5 s.

For `O=S(=O)([O-])[O-].[Ag+].[Ag+]` [Ag2SO4, reference compound], the “effect on prothrombin time (PT)” value ([5]; 100 µmol/L, human citrated plasma) was “significantly lengthened” and the erythrocyte hemolysis [3] was > 60%.

Reference: article PMC11121064 (International Journal of Molecular Sciences, 2024)
